In patent US20260256792A1, “TREATMENT OF CHRONIC SPONTANEOUS URTICARIA BY ADMINISTERING (R)-2-[3-[4-AMINO-3-(2-FLUORO-4-PHENOXY-PHENYL)PYRAZOLO[3,4-D]PYRIMIDIN-1-YL]PIPERIDINE-1-CARBONYL]-4-METHYL-4-[4-(OXETAN-3-YL)PIPERAZIN-1-YL]PENT-2-ENENITRILE” (priority 2023, published 2026):

Tested on: moderate-to-severe chronic spontaneous urticaria (CSU)
Experiment: Phase 2 CSU study: urticaria activity score over 7 days (UAS7)
Format: in vivo, human
Set-up: key to UAS7 Median / UAS7 Change from baseline Median / UAS7 change from baseline, Q1 / UAS7 change from baseline, Q3 / UAS7 change from baseline, Max / UAS7 Change from baseline LS Mean (SE): UAS7 points; daily UAS score ranges 0–6 points/day, over 7 days
From the text: The study comprises a 12 week, randomized, double-blind, placebo-controlled, multi-center, dose-ranging efficacy and safety phase, followed by a 40 week open label extension (OLE) phase (see FIG. 1). The study consists of three phases and an optional OLE phase. […] Clinically, CSU is characterized by the spontaneous and recurrent appearance of pruritic hives. The proposed primary endpoints were the UAS7 at Week 12 in EU and EU reference countries and the ISS7 in the US. Regardless of where a participant was from, all assessments were the same. The UAS7 score is a composite score containing both the HSS7 and the ISS7. This allowed a global assessment of the two key components of urticaria: hives and itch. […] The UAS is a validated PRO measure. […] The daily UAS scores range from 0 to 6 point/day. […] Patients were to complete the UAS using the e-diary. […] The following secondary endpoints were to be analyzed using the same approach as for the primary endpoint: • Change from baseline in UAS7 at Week 4 • Change from baseline in UAS7 at Week 12 (for US and US reference countries) • Change from baseline in ISS7 at Week 12 (except US and US reference countries) • Change from baseline in HSS7 at Week 12 The following responder secondary endpoints were to be analyzed using the Cochran-Mantel-Haenszel test adjusted by region: • Proportion of participants with UAS7<6 at Week 12 • Proportion of participants with UAS7=0 at Week 12 Participants who received selected prohibited medications and/or rescue medications were to be considered as non-responders for time points after the medication usage. For other participants, all available data including those collected during the off-treatment period were to be used to determine the responder/non-responder status. Missing data were to be considered as non-responders.

[1] = Week 10, 400 mg TID, ITT population
[2] = Week 10, 400 mg TID, Omalizumab-Naïve
[3] = Week 10, 400 mg TID, Prior Omalizumab Use
[4] = Week 10, 400 mg TID, omalizumab-naive participants
[5] = Week 11, 400 mg BID, ITT population
[6] = Week 11, 400 mg BID, Omalizumab-Naïve
[7] = Week 11, 400 mg BID, Prior Omalizumab Use
[8] = Week 11, 400 mg BID, omalizumab-naive participants
[9] = Week 11, 400 mg QPM, ITT population
[10] = Week 11, 400 mg QPM, Omalizumab-Naïve
[11] = Week 11, 400 mg QPM, Prior Omalizumab Use
[12] = Week 11, 400 mg QPM, omalizumab-naive participants
[13] = Week 11, 400 mg TID, ITT population
[14] = Week 11, 400 mg TID, Omalizumab-Naïve

SMILES: CC(C)(C=C(C#N)C(=O)N1CCC[C@@H](n2nc(-c3ccc(Oc4ccccc4)cc3F)c3c(N)ncnc32)C1)N1CCN(C2COC2)CC1 [rilzabrutinib, (R)-2-[3-[4-amino-3-(2-fluoro-4-phenoxy-phenyl)pyrazolo[3,4-d]pyrimidin-1-yl]piperidine-1-carbonyl]-4-methyl-4-[4-(oxetan-3-yl)piperazin-1-yl]pent-2-enenitrile]
- Non-responder, UAS7 reduction from baseline of 10 points or more [1]: 14 (34.1) n (%)
- OR for rilzabrutinib vs. placebo, UAS7 reduction of 10 points or more [1]: 2.018
- RRD (%) for rilzabrutinib vs. placebo, UAS7 reduction of 10 points or more [1]: 15.7 %
- Responder, UAS7 reduction from baseline of 10 points or more [1]: 27 (65.9) n (%)
- UAS7 Change from baseline Median [2]: −20.00
- UAS7 Mean (SD) [2]: 12.61 (9.89)
- UAS7 Median [2]: 12.83
- UAS7 Percent change from baseline Mean (SD) [2]: −58.08 (31.82) %
- UAS7 Percent change from baseline Median [2]: −59.49%
- UAS7 Change from baseline Mean (SD) [3]: −25.19 (15.27)
- UAS7 Change from baseline Median [3]: −25.08
- UAS7 Mean (SD) [3]: 7.83 (11.43)
- UAS7 Median [3]: 4.00
- UAS7 Percent change from baseline Mean (SD) [3]: −73.42 (30.92) %
- UAS7 Percent change from baseline Median [3]: −84.09%
- Non-responder, UAS7 reduction from baseline of 10 points or more [4]: 12 (34.3) n (%)
- OR for rilzabrutinib vs. placebo, UAS7 reduction of 10 points or more [4]: 2.327
- RRD (%) for rilzabrutinib vs. placebo, UAS7 reduction of 10 points or more [4]: 19.8 %
- Responder, UAS7 reduction from baseline of 10 points or more [4]: 23 (65.7) n (%)
- Non-responder, UAS7 reduction from baseline of 10 points or more [5]: 19 (46.3) n (%)
- OR for rilzabrutinib vs. placebo, UAS7 reduction of 10 points or more [5]: 1.009
- RRD (%) for rilzabrutinib vs. placebo, UAS7 reduction of 10 points or more [5]: 0.2 %
- Responder, UAS7 reduction from baseline of 10 points or more [5]: 22 (53.7) n (%)
- UAS7 Change from baseline Mean (SD) [6]: −14.86 (11.83)
- UAS7 Change from baseline Median [6]: −19.00
- UAS7 Mean (SD) [6]: 15.06 (13.80)
- UAS7 Percent change from baseline Mean (SD) [6]: −51.82 (39.20) %
- UAS7 Percent change from baseline Median [6]: −57.14%
- UAS7 Change from baseline Mean (SD) [7]: −20.43 (19.00)
- UAS7 Change from baseline Median [7]: −25.00
- UAS7 Mean (SD) [7]: 11.57 (15.45)
- UAS7 Median [7]: 2.00
- UAS7 Percent change from baseline Mean (SD) [7]: −59.15 (51.57) %
- UAS7 Percent change from baseline Median [7]: −92.59%
- Non-responder, UAS7 reduction from baseline of 10 points or more [8]: 16 (45.7) n (%)
- OR for rilzabrutinib vs. placebo, UAS7 reduction of 10 points or more [8]: 1.183
- RRD (%) for rilzabrutinib vs. placebo, UAS7 reduction of 10 points or more [8]: 4.4 %
- Responder, UAS7 reduction from baseline of 10 points or more [8]: 19 (54.3) n (%)
- Non-responder, UAS7 reduction from baseline of 10 points or more [9]: 19 (50.0) n (%)
- OR for rilzabrutinib vs. placebo, UAS7 reduction of 10 points or more [9]: 0.945
- RRD (%) for rilzabrutinib vs. placebo, UAS7 reduction of 10 points or more [9]: −1.3 %
- Responder, UAS7 reduction from baseline of 10 points or more [9]: 19 (50.0) n (%)
- UAS7 Change from baseline Mean (SD) [10]: −11.28 (9.60)
- UAS7 Change from baseline Median [10]: −11.00
- UAS7 Mean (SD) [10]: 21.17 (11.16)
- UAS7 Median [10]: 20.00
- UAS7 Percent change from baseline Mean (SD) [10]: −35.34 (30.18) %
- UAS7 Percent change from baseline Median [10]: −34.19%
- UAS7 Change from baseline Mean (SD) [11]: −23.00 (NC)
- UAS7 Change from baseline Median [11]: −23.00
- UAS7 Mean (SD) [11]: 18.00 (NC)
- UAS7 Median [11]: 18.00
- UAS7 Percent change from baseline Mean (SD) [11]: −56.10 (NC) %
- UAS7 Percent change from baseline Median [11]: −56.10%
- Non-responder, UAS7 reduction from baseline of 10 points or more [12]: 19 (51.4) n (%)
- OR for rilzabrutinib vs. placebo, UAS7 reduction of 10 points or more [12]: 0.946
- RRD (%) for rilzabrutinib vs. placebo, UAS7 reduction of 10 points or more [12]: −1.3 %
- Responder, UAS7 reduction from baseline of 10 points or more [12]: 18 (48.6) n (%)
- Non-responder, UAS7 reduction from baseline of 10 points or more [13]: 14 (34.1) n (%)
- OR for rilzabrutinib vs. placebo, UAS7 reduction of 10 points or more [13]: 1.624
- RRD (%) for rilzabrutinib vs. placebo, UAS7 reduction of 10 points or more [13]: 10.3 %
- Responder, UAS7 reduction from baseline of 10 points or more [13]: 27 (65.9) n (%)
- UAS7 Change from baseline Median [14]: −17.00
- UAS7 Median [14]: 13.00
- UAS7 Percent change from baseline Mean (SD) [14]: −56.01 (34.22) %
- UAS7 Percent change from baseline Median [14]: −60.00%
